In patent US9221765B2, “Inhibition and dispersion of bacterial biofilms with benzimidazole derivatives” (North Carolina State University, priority 2009, dated 2015):
Where a name gives a salt, the structure may show the parent alone. Read-outs that look alike come from different tables or passages of the source.

How the values were obtained:
MRSA [1] = assay: Inhibition of MRSA biofilm formation (crystal violet); format: cell-based, Staphylococcus aureus; conditions: for IC50: concentration that inhibits 50% biofilm development; for ability to inhibit biofilm formation: 100 μM (highest concentration tested)
Description: (§1) A dose-response study was then initiated in which both the IC50 and EC50 value of each compound towards the bacterial strains were determined (Table 1). Here, IC50 is defined as the concentration of compound that inhibits 50% biofilm development while EC50 is defined as the concentration of compound that disperses 50% of a pre-formed biofilm.
(§2) Procedure to Determine the Inhibitory Effect of Test Compounds on E. faecium, MRSA, S. epidermidis, PAO1 and MDRAB Biofilm Formation:
(§3) Inhibition assays were performed by taking an overnight culture of bacterial strain and subculturing it at an OD600 of 0.01 into the necessary media (brain heart infusion for E. faecium, tryptic soy broth with a 0.5% glucose supplement (TSBG) for MRSA, Luria-Bertani (LB) media for MDRAB, Luria-Bertani media without NaCl (LBNS) for PAO1 and tryptic soy broth with a 0.5% glucose supplement and a 3.0% NaCl supplement (TGN) for S. epidermidis. Stock solutions of predetermined concentrations of the test compound were then made in the necessary media. These stock solutions were aliquoted (100 μL) into the wells of the 96-well PVC microtiter plate. Sample plates were then wrapped in GLAD Press n′ Seal® followed by an incubation under stationary conditions for 24 h at 37° C. After incubation, the media was discarded from the wells and the plates were washed thoroughly with water. Plates were then stained with 100 μL of 0.1% solution of crystal violet (CV) and then incubated at ambient temperature for 30 min. Plates were washed with water again and the remaining stain was solubilized with 200 μL of 95% ethanol. A sample of 125 μL of solubilized CV stain from each well was transferred to the corresponding wells of a polystyrene microtiter dish. Biofilm inhibition was quantitated by measuring the OD540 of each well in which a negative control lane wherein no biofilm was formed served as a background and was subtracted out.
as §3, with “2-(2-amino-1H-benzo[d]imidazol-6-ylcarbamoyl)-3,4,5,6-tetrachlorobenzoic acid hydrochloride” for “test compound”, “media. Samples were then doped with 10.0 μM FeSO4 with samples with no test compound to examine effects of 10.0 μM FeSO4 on biofilm formation.” for “media.”

[2] = test system: vancomycin-resistant Enterococcus faecium (VRE); assay: Inhibition of VRE (E. faecium) biofilm formation (crystal violet); format: cell-based; conditions: for ability to inhibit biofilm formation: 100 μM (highest concentration tested)
Description: as §1, §2, §3
as §3, with “2-(2-amino-1H-benzo[d]imidazol-6-ylcarbamoyl)-3,4,5,6-tetrachlorobenzoic acid hydrochloride” for “test compound”, “media. Samples were then doped with 10.0 μM FeSO4 with samples with no test compound to examine effects of 10.0 μM FeSO4 on biofilm formation.” for “media.”

S. epidermidis [3] = assay: Inhibition of S. epidermidis biofilm formation (crystal violet); format: cell-based, Staphylococcus epidermidis; conditions: for IC50: concentration that inhibits 50% biofilm development; for ability to inhibit biofilm formation: 100 μM (highest concentration tested)
Description: as §1, §2, §3
as §3, with “2-(2-amino-1H-benzo[d]imidazol-6-ylcarbamoyl)-3,4,5,6-tetrachlorobenzoic acid hydrochloride” for “test compound”, “media. Samples were then doped with 10.0 μM FeSO4 with samples with no test compound to examine effects of 10.0 μM FeSO4 on biofilm formation.” for “media.”

MRSA [4] = assay: Dispersion of preformed MRSA biofilm; format: cell-based, Staphylococcus aureus; conditions: concentration that disperses 50% of a pre-formed biofilm
Description: as §1
(§4) Procedure to Determine the Dispersal Effect of Test Compounds on E. faecium, MRSA and S. epidermidis Preformed Biofilms:
(§5) Dispersion assays were performed by taking an overnight culture of bacterial strain and subculturing it at an OD600 of 0.01 into the necessary media (brain heart infusion for E. faecium, tryptic soy broth with a 0.5% glucose supplement (TSBG) for MRSA and tryptic soy broth with a 0.5% glucose supplement and a 3.0% NaCl supplement (TGN) for S. epidermidis. The resulting bacterial suspension was aliquoted (100 μL) into the wells of a 96-well PVC microtiter plate. Plates were then wrapped in GLAD Press n′ Seal® followed by an incubation under stationary conditions at ambient temperature to establish the biofilms. After 24 h, the media was discarded from the wells and the plates were washed thoroughly with water. Stock solutions of predetermined concentrations of the test compound were then made in the necessary media. These stock solutions were aliquoted (100 μL) into the wells of the 96-well PVC microtiter plate with the established biofilms. Media alone was added to a subset of the wells to serve as a control. Sample Plates were then incubated for 24 h at 37° C. After incubation, the media was discarded from the wells and the plates were washed thoroughly with water. Plates were then stained with 100 μL of 0.1% solution of crystal violet (CV) and then incubated at ambient temperature for 30 min. Plates were washed with water again and the remaining stain was solubilized with 200 μL of 95% ethanol. A sample of 125 μL of solubilized CV stain from each well was transferred to the corresponding wells of a polystyrene microtiter dish. Biofilm dispersion was quantitated by measuring the OD540 of each well in which a negative control lane wherein no biofilm was formed served as a background and was subtracted out.

[5] = test system: vancomycin-resistant Enterococcus faecium (VRE); assay: Dispersion of preformed VRE (E. faecium) biofilm; format: cell-based; conditions: concentration that disperses 50% of a pre-formed biofilm
Description: as §1, §4, §5

S. epidermidis [6] = assay: Dispersion of preformed S. epidermidis biofilm; format: cell-based, Staphylococcus epidermidis; conditions: concentration that disperses 50% of a pre-formed biofilm
Description: as §1, §4, §5

[7] = Divalent zinc binding via 1H NMR spectroscopy; conditions: 0, 0.5, 1.0 equivalents ZnCl2; DMSO
Description: Given this Zn(II)-dependence, the ability of 3 to bind zinc directly was determined to ascertain if the mechanism was potentially occurring via a Zn(II)-binding mechanism. To answer this question, an ^1H NMR binding experiment was performed in which the chemical shifts of 3 were measured in the presence of 0 equivalents, 0.5 equivalents, and 1.0 equivalents ZnCl2. […] As a control, the same experiment was performed with FeSO4.
Procedure to Determine the Divalent Zinc Binding Effects of Test Compounds via ^1H NMR Spectroscopy:
^1H NMR Spectra were obtained of the test compounds in DMSO on a 400 MHz NMR in the absence and in the presence of one equivalent of ZnCl2. 2-(2-amino-1H-benzo[d]imidazol-5-ylcarbamoyl)-3,4,5,6-tetrachlorobenzoic acid hydrochloride was tested at a 228 mM. 2,3,4,5-tetrachloro-6-(phenylcarbamoyl)benzoic acid was tested at 275 mM. 1H-benzo[d]imidazol-2-amine hydrochloride was tested at 649 mM.

MRSA [8] = assay: Inhibition of MRSA biofilm formation (crystal violet); format: cell-based, Staphylococcus aureus; conditions: FeSO4 alone, no test compound
[9] = test system: E. faecium, MRSA and S. epidermidis; assay: Mitigating effects of zinc on biofilm formation inhibition; format: cell-based; conditions: 200.0 μM ZnCl2 alone, no test compound
Excerpt: Next, Zn(II) homeostasis was examined. Zn(II) has been implicated in the pathogenesis of Gram-positive bacterial infections and may be an important regulator of biofilm formation (Conrady, D. G.; Brescia, C. C.; Horii, K.; Weiss, A. A.; Hassett, D. J.; Herr, A. B. Proceedings of the National Academy of Sciences of the United States of America 2008, 105, 19456-19461).
Procedure to Determine the Mitigating Effects of Zinc on E. faecium, MRSA and S. epidermidis Biofilm Formation Inhibition Induced by 2-(2-Amino-1H-Benzo[d]Imidazol-6-Ylcarbamoyl)-3,4,5,6-Tetrachlorobenzoic Acid Hydrochloride:
as §3, with “50.0 μM 2-(2-amino-1H-benzo[d]imidazol-6-ylcarbamoyl)-3,4,5,6-tetrachlorobenzoic acid hydrochloride” for “predetermined concentrations of the test compound”, “media. Samples were then doped with 25.0, 50.0, 75.0, 100.0, 150.0 and 200.0 μM ZnCl2 with controls in which no test compound was added to examine effects of 200.0 μM ZnCl2 on biofilm formation.” for “media.”

[10] = VRE, concentration that inhibits 50% biofilm development, read-out: IC50

Row | IC50 (MRSA [1]; read-out: IC50) [µM] | IC50 [2, 10] [µM] | IC50 (S. epidermidis [3]) [µM] | EC50 (MRSA [4]; read-out: EC50 (converted)) [µM] | EC50 ([5]; read-out: EC50 (converted)) [µM] | EC50 (S. epidermidis [6]) [µM] | SMILES | also measured
1 | 1.5 ± 0.4 | 210 ± 35 | 1.9 ± 0.4 | 6.6 | 280 | 19 | Nc1nc2ccc(NC(=O)[C@H]3[C@@H](C(=O)O)C4(Cl)C(Cl)=C(Cl)C3(Cl)C4(Cl)Cl)cc2[nH]1 (relative stereo) [Compound 4] | 
2 | 42 ± 2.4 | 1.9 ± 0.5 | 170 ± 14 | 48 | 230 | 180 | Nc1nc2ccc(N3C(=O)CC4(CCC4)CC3=O)cc2[nH]1 [Compound 14] | 
3 | 5.7 ± 0.5 | 7.4 ± 1.7 | 1.5 ± 0.5 | 9.5 | 31 | 33 | Nc1nc2ccc(N3C(=O)[C@@H]4[C@H](C3=O)C3(Cl)C(Cl)=C(Cl)C4(Cl)C3(Cl)Cl)cc2[nH]1 [Compound 16] | 

Continued, molecule first:

Row | SMILES | IC50 (MRSA [1]; read-out: IC50) [µM] | IC50 [2, 10] [µM] | IC50 (S. epidermidis [3]) [µM] | EC50 (MRSA [4]; read-out: EC50 (converted)) [µM] | EC50 ([5]; read-out: EC50 (converted)) [µM] | EC50 (S. epidermidis [6]) [µM] | also measured
4 | Nc1nc2ccc(NC(=O)[C@@H]3C4C=CC(C4)[C@@H]3C(=O)O)cc2[nH]1 (stereo partly drawn) [Compound 5, (2S,3R)-3-(2-amino-1H-benzo[d]imidazol-6-ylcarbamoyl)bicyclo[2.2.1]hept-5-ene-2-carboxylic acid hydrochloride] |  |  |  |  |  |  | IC50 (MRSA [1]; Staphylococcus aureus): 16 ± 2.9 µM; IC50 [2]: 63 ± 9.1 µM; IC50 (S. epidermidis [3]; Staphylococcus epidermidis): 4.1 ± 2 µM; EC50 (MRSA [4]; Staphylococcus aureus): 63 µM; EC50 [5]: 107 µM; EC50 (S. epidermidis [6]; Staphylococcus epidermidis): 45 µM
5 | CC(C)(CC(=O)O)CC(=O)Nc1ccc2nc(N)[nH]c2c1 [Compound 7] | 69 ± 2.7 | 0.9 ± 0.3 | 240 ± 20 | 205 | 94 | 260 | 
6 | Nc1nc2ccc(NC(=O)c3cccc4cccc(C(=O)O)c34)cc2[nH]1 [Compound 9, 8-(2-amino-1H-benzo[d]imidazol-6-ylcarbamoyl)-1-naphthoic acid hydrochloride] |  |  |  |  |  |  | IC50 (MRSA [1]; Staphylococcus aureus): > 300 µM; IC50 [2]: 0.9 ± 0.4 µM; IC50 (S. epidermidis [3]; Staphylococcus epidermidis): 6.2 ± 1.2 µM; EC50 (MRSA [4]; Staphylococcus aureus): > 300 µM; EC50 [5]: 6.3 µM; EC50 (S. epidermidis [6]; Staphylococcus epidermidis): 30 µM
7 | Nc1nc2ccc(N3C(=O)c4cccc5cccc(c45)C3=O)cc2[nH]1 [Compound 15] | > 300 | 69 ± 10 | 24 ± 6.3 | > 300 | 110 | 81 | 
8 | Nc1nc2ccccc2[nH]1 [Compound 17, reference compound] |  |  |  |  |  |  | ability to inhibit biofilm formation (MRSA [1]): Neither compound was able to inhibit; ability to inhibit biofilm formation ([2]; VRE): Neither compound was able to inhibit; ability to inhibit biofilm formation (S. epidermidis [3]): Neither compound was able to inhibit; zinc binding, change of 1H NMR signals [7]: no change
9 | O=C(O)c1c(Cl)c(Cl)c(Cl)c(Cl)c1C(=O)Nc1ccccc1 [Compound 18, reference compound] |  |  |  |  |  |  | ability to inhibit biofilm formation (MRSA [1]): Neither compound was able to inhibit; ability to inhibit biofilm formation ([2]; VRE): Neither compound was able to inhibit; ability to inhibit biofilm formation (S. epidermidis [3]): Neither compound was able to inhibit; zinc binding, change of 1H NMR signals [7]: no change
10 | O=S(=O)([O-])[O-].[Fe+2] [FeSO4, reference compound] |  |  |  |  |  |  | increase of biofilm formation (biofilm mass) ([2]; E. faecium, FeSO4 alone, no test compound): 1.37 times; increase of biofilm formation (biofilm mass) (S. epidermidis [3]; FeSO4 alone, no test compound): 1.25 times; increase of biofilm formation (biofilm mass) (MRSA [8]): 1.28 times
11 | [Cl-].[Cl-].[Zn+2] [ZnCl2, reference compound] |  |  |  |  |  |  | effect on biofilm formation [9]: no effect on biofilm formation
